Measured values taken from paper PMC5384962, “First-in-human studies of seletalisib, an orally bioavailable small-molecule PI3Kδ inhibitor for the treatment of immune and inflammatory diseases” (European Journal of Clinical Pharmacology, 2017).
Read-outs that look alike come from different tables or passages of the source.

What was measured:
[1] = test system: psoriatic lesional skin; assay: Study-1 Part-B exploratory PD in subjects with mild-to-moderate psoriasis (lesion scores, lesional skin biopsies); assay type: in vivo, human; settings: six subjects with psoriasis
Method: To enable assessment of target engagement, the following exploratory PD assessments were performed at various time points prior to and following study drug administration in those subjects with mild-to-moderate psoriasis. Size and appearance of the psoriatic lesion of interest (selected at screening) were assessed by lesion severity score and lesion area. Total affected area (percentage of BSA) and Physician’s Global Assessment were assessed to evaluate overall disease severity. Histological assessments of skin biopsies (6 mm) were performed by immunofluorescent microscopy of frozen sections of lesional skin, except for haematoxylin and eosin staining and IL-17 staining which were performed on formalin fixed paraffin embedded sections. Numbers of T cells (CD3), Langerhans cells (CD1a), neutrophils (MPO) and dermal dendritic cells (CD11c) were determined.  Fig. 3 Cellular responses in lesional biopsies. Lesional biopsies were taken on days 4 and 14 from each patient, and subsequently fixed, sectioned and, using immunofluorescence, stained for CD11c (dendritic cells), CD1a (Langerhans cells), CD3 (T cells) and myeloperoxidase (MPO; neutrophils). Cells were identified using a nuclear stain. Images acquired on a slide scanner were analysed using Definiens software and, following thresholding, positive cells identified. The number of positive cells per square millimeter was calculated and the fold-change in cell density from baseline was calculated. Data are mean ± SD (placebo, n = 3; treated, n = 6)

[2] = Study-2 multiple-dose day 14 pharmacokinetics (plasma); assay type: in vivo, human; settings: for CLss/F / Cmaxss / Vzss/F / AUC(0-t) / MRT / half-life / LF: geo mean (GeoCV%); for AUC(0-t) / MRT / half-life / Tmax: human, plasma, oral; for LF: linearity factor AUC(0–24)ss/AUC
Excerpt: These were phase I, randomised, double-blind, placebo-controlled studies designed to evaluate the safety, tolerability, PK and PD profiles of seletalisib following oral administration of single ascending doses and multiple ascending doses. Study-1 was a first-in-human, double-blind (sponsor-, investigator- and subject-blind) study that had two parts: Part-A evaluated seletalisib (single ascending doses) in healthy adults (including evaluation of food effects; Table 1); Part-B evaluated seletalisib (multiple ascending doses) in healthy adults and subjects with mild-to-moderate psoriasis. Study-2 was also a double-blind study of seletalisib (single and multiple ascending doses) in healthy subjects, which investigated higher doses.
Plasma concentrations of seletalisib were measured by high-performance liquid chromatography with tandem mass spectrometry (see Online Resource S1 for further details). The following PK parameters were determined in each study: AUC for seletalisib, maximum observed plasma concentration of seletalisib after a single dose (Cmax) and at steady-state (Cmaxss), time of occurrence of Cmax (tmax, obtained directly from the observed plasma concentration-time curves), minimum observed plasma concentration of seletalisib at steady-state immediately before the next dose would be administered (Ctrough), apparent terminal half-life, apparent volume of distribution after single dosing (Vz/F) and at steady-state (Vzss/F) and apparent total body clearance after single dosing (CL/F) and at steady-state (CLss/F). Accumulation factor based on AUC(0–24) [R(AUC)] and accumulation factor based on Cmax [R(Cmax)] were determined on multiple dose day 14. The following study-specific PK parameters were also determined: Study-1, total amount of seletalisib excreted in urine (Ae), renal clearance (CLr) and fraction of drug excreted in urine; Study-2, AUC(0–10) in BID dose groups, terminal elimination rate constant in plasma (λz), mean residence time (MRT) and linearity factor (LF [AUC(0–24)ss/AUC]).
Methods for the calculation of seletalisib PK parameters are detailed in Online Resource S1.
Seletalisib PK parameters were calculated via non-compartmental analysis methods from the individual concentration-time data using Phoenix WinNonlin version 6.2 (Certara, Princeton, NJ, USA). Urine (Study-1 only) and plasma PK parameters of seletalisib were reported for each subject and summarised by study part and dose group. Geometric mean and percentage geometric coefficient of variation (GeoCV%) were reported for all parameters except for tmax, which was reported using median and range. Dose proportionality for AUC and Cmax at Day_1 (Study-1 [Part-A & Part-B]; Study-2, single ascending dose-Day_1) and at steady state at Day_14 (Study-1 [Part-B]; Study-2, multiple ascending dose-Day_14) was examined via the power model and reported graphically. In Study-1, an assessment of food effect (fed versus fasted) was made for Cmax and AUC from the data for subjects who received the same dose in fed and fasted states in Part-A.

[3] = design: method as in ref 15 = [15]; 15. UCB data on file: UCB1446368-in vivo-rep; November 2011; UCB BioPharma sprl Belgium and DMPK10_062 UCB1446368 iv 1mpk male HW rat BDC; August 2010; UCB BioPharma sprl Belgium; settings: preclinical animal studies; cited from earlier work
[4] = test system: basophil degranulation; assay: Study-2 ex vivo basophil degranulation (anti-FcεR1-driven CD63 expression, whole blood); settings: Study-2, single dose, by 4 h post-dose on day 1, range across groups
Method: Subjects were assessed for basophil degranulation following stimulation at multiple time points, as described in Online Resource S1.
Degranulation of basophils was determined in whole blood by monitoring increased cell surface CD63 expression utilizing flow cytometry in an ex vivo stimulation assay driven by anti-IgE (Study-1) or anti-FcεR1 (Study-2). Briefly, blood was collected in lithium-heparin tubes (BD Biosciences, Oxford, UK) and stimulated with IgE or FcεRI cross-linking antibodies (eBiosciences, Hatfield, UK) for 12 min at 37°C. Following red blood cell lysis by addition of BD FACSlyse (BD Biosciences, Oxford, UK), samples were centrifuged and the supernatant discarded. The cell pellet was washed in PBS and re-suspended in fixative (5% formaldehyde in PBS). CD63 expression was determined on basophils (side-scatter low, CD123+HLA-DR-) and detected by flow cytometry using the BD antibody cocktail containing CD63, CD123, and anti-HLA-DR.

[5] = 15 mg, relative to placebo, lesional biopsies
[6] = power model, Study-2 multiple-dose Day 14, QD groups

In the case of `[O-][n+]1cccc(-c2nc3c(Cl)cccc3cc2[C@@H](Nc2ncnc3cccnc23)C(F)(F)F)c1` [Seletalisib, seletalisib], the “lesion severity score, total affected area (% BSA), lesion area, Physician’s Global Assessment” value ([1]; 15 mg for 14 days) is reported as “improvements in these parameters were seen in some of the six subjects”, the “numbers of dermal inflammatory cells (CD3+, CD11c+ and MPO+ cells)” value [1, 5] is reported as “trend towards reduced numbers” and the “resident Langerhans cells (CD1a+ cells)” value [1, 5] is reported as “return of the resident Langerhans cells”. For the same molecule, the CLss/F ([2]; Study-2, 30 mg QD, Day 14) was 2.13 (39.1) L/h, the Cmaxss ([2]; Study-2, 30 mg QD, Day 14) was 897.8 (35.4) ng/mL and the Vzss/F ([2]; Study-2, 30 mg QD, Day 14) was 64.8 (24.2) L. For the same molecule, the CLss/F ([2]; Study-2, 45 mg QD, Day 14) was 2.65 (36.9) L/h, the Cmaxss ([2]; Study-2, 45 mg QD, Day 14) was 1114 (27.7) ng/mL and the Vzss/F ([2]; Study-2, 45 mg QD, Day 14) was 74.5 (27.9) L. For the same molecule, the CLss/F ([2]; Study-2, 60 mg QD, Day 14) was 2.00 (32.5) L/h, the Cmaxss ([2]; Study-2, 60 mg QD, Day 14) was 1957 (30.2) ng/mL and the Vzss/F ([2]; Study-2, 60 mg QD, Day 14) was 56.7 (33.3) L. For the same molecule, the CLss/F ([2]; Study-2, 90 mg QD, Day 14) was 2.33 (19.7) L/h, the Cmaxss ([2]; Study-2, 90 mg QD, Day 14) was 2355 (17.8) ng/mL and the Vzss/F ([2]; Study-2, 90 mg QD, Day 14) was 68.0 (23.9) L. It also gave an AUC(0-t) ([2]; 30 mg, Study-2, 30 mg BID, Day 14, read-out: AUC(0–10)) of 10600 ng·h/mL, an AUC(0-t) ([2]; 30 mg, Study-2, 30 mg QD, Day 14, read-out: AUC(0–24)) of 14100 ng·h/mL and an AUC(0-t) ([2]; 30 mg, Study-2, 30 mg QD, Day 14, read-out: AUC(0–t)) of 24900 ng·h/mL. It also gave an AUC(0-t) ([2]; 45 mg, Study-2, 45 mg QD, Day 14, read-out: AUC(0–24)) of 17000 ng·h/mL, an AUC(0-t) ([2]; 45 mg, Study-2, 45 mg QD, Day 14, read-out: AUC(0–t)) of 30100 ng·h/mL and an AUC(0-t) ([2]; 60 mg, Study-2, 60 mg QD, Day 14, read-out: AUC(0–24)) of 30000 ng·h/mL. For the same molecule, the AUC(0-t) ([2]; 60 mg, Study-2, 60 mg QD, Day 14, read-out: AUC(0–t)) was 51600 ng·h/mL, the AUC(0-t) ([2]; 90 mg, Study-2, 90 mg QD, Day 14, read-out: AUC(0–24)) was 38600 ng·h/mL and the AUC(0-t) ([2]; 90 mg, Study-2, 90 mg QD, Day 14, read-out: AUC(0–t)) was 67600 ng·h/mL. For the same molecule, the MRT ([2]; Study-2, 30 mg QD, Day 14) was 24.9 h, the half-life ([2]; Study-2, 30 mg QD, Day 14) was 24.6 h and the Tmax ([2]; Study-2, 30 mg QD, Day 14, median (range), read-out: tmax) was 4 h. For the same molecule, the MRT ([2]; Study-2, 45 mg QD, Day 14) was 25.1 h, the half-life ([2]; Study-2, 45 mg QD, Day 14) was 28.5 h and the Tmax ([2]; Study-2, 45 mg QD, Day 14, median (range), read-out: tmax) was 4 h. For the same molecule, the MRT ([2]; Study-2, 60 mg QD, Day 14) was 24.2 h, the half-life ([2]; Study-2, 60 mg QD, Day 14) was 24.6 h and the Tmax ([2]; Study-2, 60 mg QD, Day 14, median (range), read-out: tmax) was 3.5 h. For the same molecule, the MRT ([2]; Study-2, 90 mg QD, Day 14) was 24.7 h, the half-life ([2]; Study-2, 90 mg QD, Day 14) was 24.6 h and the Tmax ([2]; Study-2, 90 mg QD, Day 14, median (range), read-out: tmax) was 4 h. The Tmax ([2]; Study-2, day 14, fed, range across groups, read-out: time to peak plasma concentration) was 3.5 to 4 h, the LF ([2]; Study-2, 30 mg QD, Day 14) was 1.275 (16.7) and the LF ([2]; Study-2, 45 mg QD, Day 14) was 1.028 (26.4). For the same molecule, the LF ([2]; Study-2, 60 mg QD, Day 14) was 1.160 (31.8), the LF ([2]; Study-2, 90 mg QD, Day 14) was 1.127 (25.9) and the “Dose proportionality of Cmaxss (ng/mL): Dose (beta), Estimate” value [2, 6] was 0.96. The “Dose proportionality of Cmaxss (ng/mL): Intercept, Estimate” value [2, 6] was 3.52, the route of elimination [3] was “primarily eliminated by combined hepatic metabolism and biliary excretion” and the “inhibition of basophil degranulation” value [4] was 80.3–92.5%.
